Patent US20220380341A1, “INHIBITORS OF HIV-1 NEF FOR THE TREATMENT OF HIV DISEASE” (priority 2018, published 2022)
pKd: −log10 of the molar value. “And” between values parts separate entries of the source, which are not always exact repeats. Identical values can stand only once. Like-named read-outs stand apart in the source and are kept apart here.

Tests used:
TZM-bl cell line = assay type: cell-based; details: human, 1 μM
How it was run: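 Read-out is luciferase from an integrated HIV-1 LTR reporter in TZM-bl cells, 48 h after HIV-1NL4-3 infection in the presence of 1 μM compound. Scale set by DMSO-treated wild-type-infected cells (0%) and Nef-defective virus (100% Nef-dependent effect). Cell Titer Blue measures cytotoxicity without virus.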

HIV-1NL4-3 = test: HIV-1 infectivity assay in TZM-bl reporter cell line (LTR-luciferase, 48 h); assay type: cell-based; details: for inhibition at 1 µM: Human immunodeficiency virus 1, TZM-bl
How it was run: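 Nef-dependent infectivity in TZM-bl cells: HIV-1NL4-3 infection with 1 μM compound, luciferase read at 48 h, normalized against DMSO wild-type and Nef-defective controls. Compound cytotoxicity in uninfected cells measured by Cell Titer Blue.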

HIV-1 NefNL4-3 = HIV-1 NefNL4-3 (Human immunodeficiency virus type 1 group M subtype B, UniProt P03406, A33V/T15A/T51N/V11I); test: Surface plasmon resonance binding to recombinant full-length Nef (NL4-3); details: for RU30/RUNef (extent of binding): response units at 30 μM relative to Nef immobilized on the SPR chip; for Nef NL4-3 Binding, SPR 1:1 or 2-site fitting KD1: 1:1 Langmuir fit where the KD2 cell says '1 to 1 fitting', else 2-site fit
[1] = 1.0 μM, TZM-bl reporter cell line, Table 4, read-out: % Infectivity Inhibition
[2] = 48 h, Table 1, TZM-bl cells, 1 μM, 48 h, 100% = Nef-defective HIV-1, read-out: HIV-1 Infectivity % Inhibition Norm. to Δ-Nef @ 1 μM
[3] = KD, M, Table 4, SPR fit 1:1 Langmuir, KD = koff/kon
[4] = Table 4, 1:1 Langmuir fit, T = 1/koff
[5] = KD, M, Table 4, SPR fit 2-step induced fit, KD = koff/kon × koff2/(koff2 + kon2)
[6] = Table 4, 2-step induced fit, T = 1/koff2
[7] = read-out: Nef NL4-3 Binding, SPR 1:1 or 2-site fitting KD2, Table 1, 2-site fit, second component
[8] = Nef NL4-3 Binding, SPR 2-state fitting KD, Table 1, 2-step induced-fit model

Row | SMILES | % Cell Viability (TZM-bl cell line) [%] | Percent Viability @ 1 μM (TZM-bl cells) (TZM-bl cell line) [%] | inhibition at 1 µM (HIV-1NL4-3; [1]) [%] | inhibition at 1 µM (HIV-1NL4-3; [2]) [%] | pKd (HIV-1 NefNL4-3) | pKd (HIV-1 NefNL4-3; [3]) | T, minutes (residence time) (HIV-1 NefNL4-3; [4]) | RU30/RUNef (extent of binding) (HIV-1 NefNL4-3) | HIV-1 Infectivity % Inhibition Norm. to Δ-Nef @ 1 μM (HIV-1NL4-3; Table 1, TZM-bl cells, 1 μM, 48 h, 100% = Nef-defective HIV-1) [%] | pKd (HIV-1 NefNL4-3; [5]) | pKd (HIV-1 NefNL4-3; Nef NL4-3 Binding, SPR 1:1 or 2-site fitting KD2, Table 1, 2-site fit, second component) | T, minutes (residence time) (HIV-1 NefNL4-3; [6]) | pKd (HIV-1 NefNL4-3; [7]) | pKd (HIV-1 NefNL4-3; [8]) | inhibition at 1 µM (HIV-1NL4-3; 48 h, Table 2, TZM-bl cells, 1 μM, 48 h, 100% = Nef-defective HIV-1, read-out: HIV-1 Infectivity % Inhibition Norm. to Δ-Nef @ 1 μM) [%] | Nef NL4-3 Binding, SPR 1:1 or 2-site fitting KD1 (HIV-1 NefNL4-3; Table 2) | Nef NL4-3 Binding, SPR 1:1 or 2-site fitting KD1 (HIV-1 NefNL4-3; Table 1)
1 | Oc1c(CC2CCN(CC(F)(F)F)CC2)c(-c2ccc(C(F)(F)F)cc2)nn1-c1nc2ccccc2[nH]1 [Compound I-1005, 1-(1H-1,3-benzodiazol-2-yl)-4-{[1-(2,2,2-trifluoroethyl)piperidin-4-yl]methyl}-3-[4-(trifluoromethyl)phenyl]-1H-pyrazol-5-ol] | 93.5 | 93.5 | 49.2 | 49.2 | 7.04 | 7.04 | 9.47E + 00 minutes | 1.26E- 03 |  |  |  |  |  |  |  |  | 
2 | Oc1c(CC2CCOCC2)c(C2CC2)nn1-c1nc2cccnc2[nH]1 [Compound I-315, 3-cyclopropyl-1-{3H-imidazo[4,5-b]pyridin-2-yl}-4-[(oxan-4-yl)methyl]-1H-pyrazol-5-ol] |  | 100.6 |  | 28.5 | 5.73 |  |  |  |  |  |  |  |  |  |  |  | 
3 | Cn1c(-n2nc(-c3ccc(C(F)(F)F)cc3)c(CCc3ccc(F)cc3)c2O)nc2ccccc21 [Compound I-401, 4-[2-(4-fluorophenyl)ethyl]-1-(1-methyl-1H-1,3-benzodiazol-2-yl)-3-[4-(trifluoromethyl)phenyl]-1H-pyrazol-5-ol] | 86.4 |  | 99.6 |  | 5.72 and 6.63 |  |  | 2.01E- 02 | 52.3 | 4.11 | 5.61 | 1.45E + 03 minutes | 4.74 |  |  |  | 
4 | Oc1c(CCc2ccc(F)cc2)c(-c2ccc(F)cc2)nn1-c1nc2cc(Cl)ccc2[nH]1 [Compound I-172, 1-(5-chloro-1H-1,3-benzodiazol-2-yl)-3-(4-fluoropheny1)-4-[2-(4-fluorophenyl)ethyl]-1H-pyrazol-5-ol] | 96.5 | 96.5 | 56 | 56 | 6.60 |  |  | 4.28E- 02 |  | 7.16 |  | 1.73E + 01 minutes |  | 7.16 |  |  | 
5 | Oc1c(CCc2ccc(F)cc2)c(C2CCN(Cc3cccnc3)CC2)nn1-c1nc2ccccc2[nH]1 [Compound I-803, 1-(1H-1,3-benzodiazol-2-yl)-4-[2-(4-fluorophenyl)ethyl]-3-{1-[(pyridin-3-yl)methyl]piperidin-4-yl}-1H-pyrazol-5-ol] | 100 | 100.4 | 3.2 | 3.2 | 6.09 | 6.09 | 1.59E + 01 minutes | 1.69E- 03 |  |  |  |  |  |  |  |  | 
6 | Oc1c(CC2CCCCO2)c(-c2ccc(C(F)(F)F)cc2)nn1-c1nc2ccccc2[nH]1 (stereo not shown) [Compound I-122, 1-(1H-1,3-benzodiazol-2-yl)-4-[(oxan-2-yl)methyl]-3-[4-(trifluoromethyl)phenyl]-1H-pyrazol-5-ol] | 75.2 | 75.2 | 95.4 | 95.4 | 5.91 |  |  | 1.07E- 02 |  | 5.65 |  | 1.02E + 01 minutes | 4.94 | 5.73 |  |  | 
7 | Oc1c(CCc2ccc(F)cc2)c(CCCc2ccc(F)cc2)nn1-c1nc2cccnc2[nH]1 [Compound I-307, 4-[2-(4-fluorophenyl)ethyl]-3-[3-(4-fluorophenyl)propyl]-1-{3H-imidazo[4,5-b]pyridin-2-yl}-1H-pyrazol-5-ol] | 98.2 | 98.2 | 47.5 | 47.5 | 6.05 | 6.05 | 1.14E + 01 minutes | 6.84E- 03 |  |  |  |  |  |  |  |  | 
8 | Cc1ccc(-c2nn(-c3nc4ccccc4[nH]3)c(O)c2CCc2ccc(F)cc2)cn1 [Compound I-140, 1-(1H-1,3-benzodiazol-2-yl)-4-[2-(4-fluorophenyl)ethyl]-3-(6-methylpyridin-3-yl)-1H-pyrazol-5-ol] |  | 98.3 |  | 57.3 | 6.04 |  |  |  |  |  |  |  |  |  |  |  | 
9 | O=C(O)c1ccc(CCc2c(-c3ccccc3)nn(-c3cc(C(F)(F)F)n[nH]3)c2O)cc1 [Compound I-618, 4-{2-[5-hydroxy-3-phenyl-5′-(trifluoromethyl)-2′H-[1,3′-bipyrazol]-4-yl]ethyl}benzoic acid] |  | 93.8 |  |  |  |  |  |  |  |  |  |  |  |  | 0 | No interaction | 
10 | Oc1c(CC2CCOCC2)c(C2CC(F)(F)C2)nn1-c1nc2ccccc2[nH]1 [Compound I-176, 1-(1H-1,3-benzodiazol-2-yl)-3-(3,3-difluorocyclobutyl)-4-[(oxan-4-yl)methyl]-1H-pyrazol-5-ol] | 98.4 |  | 0 |  |  | 5.65 | 5.08E + 00 minutes | 1.52E- 03 |  |  |  |  |  |  |  |  | 
11 | Oc1c(CCc2ccc(F)cc2)c(CNCc2cccnc2)nn1-c1nc2ccccc2[nH]1 [Compound I-811, 1-(1H-1,3-benzodiazol-2-yl)-4-[2-(4-fluorophenyl)ethyl]-3-({[(pyridin-3-yl)methyl]amino}methyl)-1H-pyrazol-5-ol] | 100 | 100.7 | 8.3 | 8.3 | 6.25 |  |  | 3.57E- 03 |  | 4.90 |  | 3.83E- 01 minutes | 5.62 | 4.90 |  |  | 
12 | CC(C)(O)C(=O)N1CCC(c2nn(-c3nc4ccccc4[nH]3)c(O)c2CCc2ccc(F)cc2)CC1 [Compound I-745, 1-{4-[1-(1H-1,3-benzodiazol-2-yl)-4-[2-(4-fluorophenyl)ethyl]-5-hydroxy-1H-pyrazol-3-yl]piperidin-1-yl}-2-hydroxy-2-methylpropan-1-one] |  | 100.0 |  | 23.8 | 5.00 |  |  |  |  |  |  |  |  |  |  |  | 
13 | Oc1c(CC2CCOCC2)c(C2CCOCC2)nn1-c1nc2cccnc2[nH]1 [Compound I-312, 1-{3H-imidazo[4,5-b]pyridin-2-yl}-3-(oxan-4-yl)-4-[(oxan-4-yl)methyl]-1H-pyrazol-5-ol] |  | 100.1 |  | -33.7 |  |  |  |  |  |  |  |  |  |  |  |  | No Interaction
14 | CC(C)(C)OC(=O)N1C[C@@H]2[C@H](C1)[C@H]2c1nn(-c2nc3ccccc3[nH]2)c(O)c1CCc1ccc(F)cc1 [Compound I-209, tert-butyl 6-[1-(1H-1,3-benzodiazol-2-yl)-4-[2-(4-fluorophenyl)ethyl]-5-hydroxy-1H-pyrazol-3-yl]-3-azabicyclo[3.1.0]hexane-3-carboxylate] | 100 | 100.1 | 4.2 | 4.2 | 6.11 |  |  | 8.59E- 03 |  | 5.32 |  | 3.81E- 01 minutes |  | 5.23 |  |  | 
15 | O=C(c1cnccn1)N1CCC(Cc2nn(-c3nc4ccccc4[nH]3)c(O)c2CCc2ccc(F)cc2)CC1 [Compound I-767, 1-(1H-1,3-benzodiazol-2-yl)-4-[2-(4-fluorophenyl)ethyl]-3-{[1-(pyrazine-2-carbonyl)piperidin-4-yl]methyl}-1H-pyrazol-5-ol] |  | 97.6 |  | 18.9 | 6.37 |  |  |  |  |  |  |  |  |  |  |  | 
